Source: the OligoGym collection
Where “and” joins values, the source holds several entries; their conditions need not be identical. Equal entries are not always repeated. HELM strings list units from the 5' end as sugar, base in round brackets, then linkage (d deoxyribose, r ribose, m 2'-O-methyl, p phosphodiester). Methylation of C is not given here. [moe] = 2'-O-(2-methoxyethyl) (MOE); [cEt] = constrained ethyl (cEt); [sp] = phosphorothioate linkage

molecular target: HBV; details: ASO, HepG2, 0.0092593 µM

Row | Substance | target mRNA inhibition
1 | RNA1{[moe](C)[sp].[moe](G)[sp].[moe](C)[sp].d(A)[sp].d(G)[sp].d(T)[sp].d(A)[sp].d(T)[sp].d(G)[sp].d(G)[sp].d(A)[sp].d(T)[sp].[moe](C)[sp].[moe](G)[sp].[moe](G)[sp].[moe](C)[sp].[moe](A)}$$$$V2.0 | 7%

same assay, conditions: ASO, HepG2, 0.0277778 µM

Row | Substance | target mRNA inhibition
2 | RNA1{[moe](C)[sp].[moe](G)[sp].[moe](C)[sp].d(A)[sp].d(G)[sp].d(T)[sp].d(A)[sp].d(T)[sp].d(G)[sp].d(G)[sp].d(A)[sp].d(T)[sp].[moe](C)[sp].[moe](G)[sp].[moe](G)[sp].[moe](C)[sp].[moe](A)}$$$$V2.0 | 38%

same assay, conditions: ASO, HepG2, 0.07 µM

Row | Substance | target mRNA inhibition
3 | RNA1{[moe](C)[sp].[cEt](G)[sp].[cEt](G)[sp].d(G)[sp].d(C)[sp].d(A)[sp].d(A)[sp].d(C)[sp].d(A)[sp].d(T)[sp].d(A)[sp].d(C)[sp].d(C)[sp].[cEt](T)[sp].[cEt](T)[sp].[moe](G)}$$$$V2.0 | 61% and 63%
4 | RNA1{[moe](C)[sp].[cEt](G)[sp].[cEt](T)[sp].d(G)[sp].d(C)[sp].d(A)[sp].d(G)[sp].d(A)[sp].d(G)[sp].d(G)[sp].d(T)[sp].d(G)[sp].d(A)[sp].[cEt](A)[sp].[cEt](G)[sp].[moe](C)}$$$$V2.0 | 68% and 65%
5 | RNA1{[moe](C)[sp].[cEt](G)[sp].d(T)[sp].d(G)[sp].d(C)[sp].d(A)[sp].d(G)[sp].d(A)[sp].d(G)[sp].d(G)[sp].d(T)[sp].d(G)[sp].[cEt](A)[sp].[moe](A)[sp].[cEt](G)[sp].[moe](C)}$$$$V2.0 | 76% and 79%
6 | RNA1{[moe](C)[sp].[cEt](T)[sp].d(G)[sp].d(A)[sp].d(A)[sp].d(C)[sp].d(A)[sp].d(A)[sp].d(A)[sp].d(T)[sp].d(G)[sp].d(G)[sp].[cEt](C)[sp].[moe](A)[sp].[cEt](C)[sp].[moe](T)}$$$$V2.0 | 58% and 71%
7 | RNA1{[moe](C)[sp].[moe](A)[sp].[moe](A)[sp].[moe](T)[sp].[moe](T)[sp].d(T)[sp].d(A)[sp].d(T)[sp].d(G)[sp].d(C)[sp].d(C)[sp].d(T)[sp].d(A)[sp].d(C)[sp].[moe](A)[sp].[moe](G)[sp].[moe](C)}$$$$V2.0 | 30% and 13%
8 | RNA1{[moe](C)[sp].[moe](A)[sp].[moe](C)[sp].d(T)[sp].d(A)[sp].d(G)[sp].d(T)[sp].d(A)[sp].d(A)[sp].d(A)[sp].d(C)[sp].d(T)[sp].[moe](G)[sp].[moe](A)[sp].[moe](G)[sp].[moe](C)[sp].[moe](C)}$$$$V2.0 | 54% and 37%
9 | RNA1{[moe](C)[sp].[moe](A)[sp].[moe](G)[sp].[moe](A)[sp].[moe](G)[sp].d(G)[sp].d(T)[sp].d(G)[sp].d(A)[sp].d(A)[sp].d(G)[sp].d(C)[sp].d(G)[sp].d(A)[sp].[moe](A)[sp].[moe](G)}$$$$V2.0 | 60% and 57%
10 | RNA1{[moe](C)[sp].[moe](A)[sp].[moe](G)[sp].[moe](A)[sp].d(G)[sp].d(G)[sp].d(T)[sp].d(G)[sp].d(A)[sp].d(A)[sp].d(G)[sp].d(C)[sp].d(G)[sp].[moe](A)[sp].[moe](A)[sp].[moe](G)[sp].[moe](T)}$$$$V2.0 | 60% and 45%
11 | RNA1{[moe](C)[sp].[moe](A)[sp].[moe](G)[sp].d(A)[sp].d(G)[sp].d(G)[sp].d(T)[sp].d(G)[sp].d(A)[sp].d(A)[sp].d(G)[sp].d(C)[sp].d(G)[sp].[cEt](A)[sp].[cEt](A)[sp].[cEt](G)}$$$$V2.0 | 60% and 62%
12 | RNA1{[moe](C)[sp].[moe](C)[sp].[moe](A)[sp].[moe](A)[sp].[moe](T)[sp].d(T)[sp].d(T)[sp].d(A)[sp].d(T)[sp].d(G)[sp].d(C)[sp].d(C)[sp].d(T)[sp].d(A)[sp].[moe](C)[sp].[moe](A)[sp].[moe](G)}$$$$V2.0 | 25% and 9%
13 | RNA1{[moe](C)[sp].[moe](C)[sp].[moe](A)[sp].[moe](A)[sp].d(T)[sp].d(T)[sp].d(T)[sp].d(A)[sp].d(T)[sp].d(G)[sp].d(C)[sp].d(C)[sp].d(T)[sp].[moe](A)[sp].[moe](C)[sp].[moe](A)[sp].[moe](G)}$$$$V2.0 | 34% and 11%
14 | RNA1{[moe](C)[sp].[moe](C)[sp].[moe](A)[sp].d(C)[sp].d(T)[sp].d(G)[sp].d(A)[sp].d(A)[sp].d(C)[sp].d(A)[sp].d(A)[sp].d(A)[sp].d(T)[sp].[cEt](G)[sp].[cEt](G)[sp].[cEt](C)}$$$$V2.0 | 77% and 78%
15 | RNA1{[moe](C)[sp].[moe](C)[sp].d(A)[sp].d(A)[sp].d(T)[sp].d(T)[sp].d(T)[sp].d(A)[sp].d(T)[sp].d(G)[sp].d(C)[sp].[moe](C)[sp].[moe](T)[sp].[moe](A)[sp].[moe](C)[sp].[moe](A)[sp].[moe](G)}$$$$V2.0 | 41% and 42%
16 | RNA1{[moe](C)[sp].[moe](C)[sp].d(A)[sp].d(A)[sp].d(T)[sp].d(T)[sp].d(T)[sp].d(A)[sp].d(T)[sp].d(G)[sp].d(C)[sp].[moe](C)[sp].[moe](T)[sp].[moe](A)[sp].[moe](C)[sp].[moe](A)}$$$$V2.0 | 13% and 22%
17 | RNA1{[moe](C)[sp].[moe](C)[sp].d(G)[sp].d(C)[sp].d(A)[sp].d(G)[sp].d(T)[sp].d(A)[sp].d(T)[sp].d(G)[sp].d(G)[sp].[moe](A)[sp].[moe](T)[sp].[moe](C)[sp].[moe](G)[sp].[moe](G)[sp].[moe](C)}$$$$V2.0 | 86% and 80%
18 | RNA1{[moe](C)[sp].[moe](G)[sp].[moe](A)[sp].[moe](A)[sp].[moe](C)[sp].[moe](C)[sp].d(A)[sp].d(C)[sp].d(T)[sp].d(G)[sp].d(A)[sp].d(A)[sp].d(C)[sp].d(A)[sp].d(A)[sp].[moe](A)[sp].[moe](T)}$$$$V2.0 | 0% and 20%

Row | Substance | target mRNA inhibition
19 | RNA1{[moe](C)[sp].[moe](G)[sp].[moe](A)[sp].[moe](A)[sp].[moe](C)[sp].d(C)[sp].d(A)[sp].d(C)[sp].d(T)[sp].d(G)[sp].d(A)[sp].d(A)[sp].d(C)[sp].d(A)[sp].[moe](A)[sp].[moe](A)}$$$$V2.0 | 36% and 19%
20 | RNA1{[moe](C)[sp].[moe](G)[sp].[moe](A)[sp].[moe](A)[sp].d(C)[sp].d(C)[sp].d(A)[sp].d(C)[sp].d(T)[sp].d(G)[sp].d(A)[sp].d(A)[sp].d(C)[sp].[moe](A)[sp].[moe](A)[sp].[moe](A)[sp].[moe](T)}$$$$V2.0 | 48% and 41%
21 | RNA1{[moe](C)[sp].[moe](G)[sp].[moe](C)[sp].[moe](A)[sp].[moe](G)[sp].d(T)[sp].d(A)[sp].d(T)[sp].d(G)[sp].d(G)[sp].d(A)[sp].d(T)[sp].d(C)[sp].d(G)[sp].[moe](G)[sp].[moe](C)[sp].[moe](A)}$$$$V2.0 | 56% and 57%
22 | RNA1{[moe](C)[sp].[moe](G)[sp].[moe](C)[sp].[moe](A)[sp].[moe](G)[sp].d(T)[sp].d(A)[sp].d(T)[sp].d(G)[sp].d(G)[sp].d(A)[sp].d(T)[sp].d(C)[sp].d(G)[sp].[moe](G)[sp].[moe](C)}$$$$V2.0 | 64% and 57%
23 | RNA1{[moe](C)[sp].[moe](G)[sp].[moe](C)[sp].d(A)[sp].d(G)[sp].d(T)[sp].d(A)[sp].d(T)[sp].d(G)[sp].d(G)[sp].d(A)[sp].d(T)[sp].[moe](C)[sp].[moe](G)[sp].[moe](G)[sp].[moe](C)[sp].[moe](A)}$$$$V2.0 | 85% and 80%
24 | RNA1{[moe](C)[sp].[moe](G)[sp].[moe](G)[sp].d(G)[sp].d(C)[sp].d(A)[sp].d(A)[sp].d(C)[sp].d(A)[sp].d(T)[sp].d(A)[sp].d(C)[sp].[moe](C)[sp].[moe](T)[sp].[moe](T)[sp].[moe](G)}$$$$V2.0 | 56% and 45%
25 | RNA1{[moe](C)[sp].[moe](G)[sp].[moe](G)[sp].d(G)[sp].d(C)[sp].d(A)[sp].d(A)[sp].d(C)[sp].d(A)[sp].d(T)[sp].d(A)[sp].d(C)[sp].d(C)[sp].[cEt](T)[sp].[cEt](T)[sp].[cEt](G)}$$$$V2.0 | 56% and 65%
26 | RNA1{[moe](C)[sp].[moe](G)[sp].[moe](T)[sp].[moe](G)[sp].[moe](C)[sp].d(A)[sp].d(G)[sp].d(A)[sp].d(G)[sp].d(G)[sp].d(T)[sp].d(G)[sp].d(A)[sp].d(A)[sp].[moe](G)[sp].[moe](C)[sp].[moe](G)}$$$$V2.0 | 74% and 63%
27 | RNA1{[moe](C)[sp].[moe](G)[sp].[moe](T)[sp].[moe](G)[sp].d(C)[sp].d(A)[sp].d(G)[sp].d(A)[sp].d(G)[sp].d(G)[sp].d(T)[sp].d(G)[sp].d(A)[sp].[moe](A)[sp].[moe](G)[sp].[moe](C)[sp].[moe](G)}$$$$V2.0 | 58% and 43%
28 | RNA1{[moe](C)[sp].[moe](G)[sp].[moe](T)[sp].d(G)[sp].d(C)[sp].d(A)[sp].d(G)[sp].d(A)[sp].d(G)[sp].d(G)[sp].d(T)[sp].d(G)[sp].[moe](A)[sp].[moe](A)[sp].[moe](G)[sp].[moe](C)}$$$$V2.0 | 62% and 42%
29 | RNA1{[moe](C)[sp].[moe](G)[sp].d(T)[sp].d(G)[sp].d(C)[sp].d(A)[sp].d(G)[sp].d(A)[sp].d(G)[sp].d(G)[sp].d(T)[sp].[moe](G)[sp].[moe](A)[sp].[moe](A)[sp].[moe](G)[sp].[moe](C)[sp].[moe](G)}$$$$V2.0 | 74% and 68%
30 | RNA1{[moe](C)[sp].[moe](T)[sp].[moe](A)[sp].d(G)[sp].d(T)[sp].d(A)[sp].d(A)[sp].d(A)[sp].d(C)[sp].d(T)[sp].d(G)[sp].d(A)[sp].[moe](G)[sp].[moe](C)[sp].[moe](C)[sp].[moe](A)}$$$$V2.0 | 66% and 60%
31 | RNA1{[moe](C)[sp].[moe](T)[sp].[moe](G)[sp].[moe](G)[sp].[moe](A)[sp].[moe](G)[sp].d(C)[sp].d(C)[sp].d(A)[sp].d(C)[sp].d(C)[sp].d(A)[sp].d(G)[sp].d(C)[sp].d(A)[sp].[moe](G)[sp].[moe](G)}$$$$V2.0 | 54% and 50%
32 | RNA1{[moe](C)[sp].[moe](T)[sp].[moe](G)[sp].[moe](G)[sp].[moe](A)[sp].d(G)[sp].d(C)[sp].d(C)[sp].d(A)[sp].d(C)[sp].d(C)[sp].d(A)[sp].d(G)[sp].d(C)[sp].[moe](A)[sp].[moe](G)[sp].[moe](G)}$$$$V2.0 | 42% and 44%
33 | RNA1{[moe](C)[sp].[moe](T)[sp].[moe](G)[sp].d(G)[sp].d(A)[sp].d(G)[sp].d(C)[sp].d(C)[sp].d(A)[sp].d(C)[sp].d(C)[sp].d(A)[sp].[moe](G)[sp].[moe](C)[sp].[moe](A)[sp].[moe](G)[sp].[moe](G)}$$$$V2.0 | 79% and 64%
34 | RNA1{[moe](G)[sp].[cEt](A)[sp].[cEt](A)[sp].d(C)[sp].d(C)[sp].d(A)[sp].d(C)[sp].d(T)[sp].d(G)[sp].d(A)[sp].d(A)[sp].d(C)[sp].d(A)[sp].[cEt](A)[sp].[cEt](A)[sp].[moe](T)}$$$$V2.0 | 65% and 53%

same assay, conditions: ASO, HepG2, 0.0833333 µM

Row | Substance | target mRNA inhibition
35 | RNA1{[moe](C)[sp].[moe](G)[sp].[moe](C)[sp].d(A)[sp].d(G)[sp].d(T)[sp].d(A)[sp].d(T)[sp].d(G)[sp].d(G)[sp].d(A)[sp].d(T)[sp].[moe](C)[sp].[moe](G)[sp].[moe](G)[sp].[moe](C)[sp].[moe](A)}$$$$V2.0 | 78%

same assay, conditions: ASO, HepG2, 0.25 µM

Row | Substance | target mRNA inhibition
36 | RNA1{[moe](C)[sp].[moe](G)[sp].[moe](C)[sp].d(A)[sp].d(G)[sp].d(T)[sp].d(A)[sp].d(T)[sp].d(G)[sp].d(G)[sp].d(A)[sp].d(T)[sp].[moe](C)[sp].[moe](G)[sp].[moe](G)[sp].[moe](C)[sp].[moe](A)}$$$$V2.0 | 89%
